* marks the point of attachment. MeOSuc = COC(=O)CCC(=O)*; CH2Cl = ClC*
Columns and labels:
B16 melanocytes [1] = test: Screening of anti-melanogenesis activity: melanin assay in B16 melanocytes stimulated with NDP-MSH; assay type: cell-based; conditions: 72 h
Experimental: This was carried out for compounds in solution in DMSO. The synthesis of melanin was measured in a model of B16 melanocytes stimulated with a stable derivative of α-MSH (natural hormone that stimulates melanogenesis: Melanocyte Stimulating Hormone): NDP-MSH ([Nle^4, DPhe7]-α-MSH).
(§1) Melanocytes were seeded on a 96-well plate and cultured for 24 h (37° C., 5% CO2, DMEM 1 g/L glucose without phenol red supplemented with glucose 3 g/L, L-glutamine 2 mM, penicillin 50 U/mL, streptomycin 50 μg/mL, fetal calf serum (FCS) 10%). […] Each experimental condition was carried out with n=3, apart from the controls carried out with n=6. The cells were then incubated for 72 h. Wells without cells received in parallel the same quantities of medium, supplemented or not with NDP-MSH and with or without the test compounds or the reference in order to quantify the background noise associated with the presence of the compounds.
At the end of 72 hours of incubation, the total melanin (intra- and extracellular) was quantified by measuring the absorbance of each sample at 405 nm (direct reading of the culture plates) against a standard range of melanin (melanin concentrations tested from 0.78 to 100 μg/mL). The background noise, measured in the wells without cells, was subtracted from the values measured so that only the effect connected with the production of melanin is taken into account, without including any interference connected with the presence of the compounds. The results were expressed in percentage of melanin relative to the control as well as in percentage inhibition.

B16 melanocytes [2] = test: Viability of the cells, test of reduction of MTT; assay type: cell-based; conditions: 72 h
Experimental: as §1
At the end of the treatment, the cells were incubated in the presence of MTT (3-(4,5-dimethylthiazol-2-yl)-2,5-diphenyl tetrazolium bromide), the conversion of which to blue crystals of formazan is proportional to the activity of succinate dehydrogenase (mitochondrial enzyme). After disruption of the cells, the formazan was dissolved in DMSO medium and the optical density (OD), representative of the number of live cells and of their metabolic reactivity, was measured with a microplate reader at 540 nm (VERSAmax, Molecular Devices).

[3] = test system: Normal human dermal fibroblasts (NHDF); test: Proliferation and/or migration of fibroblasts, artificial wound coverage; assay type: cell-based; conditions: percentage coverage at 24 h
Experimental: An increase in migration and proliferation of the cells allows an improvement in healing. • Biological model: Normal human dermal fibroblasts (NHDF) • Culture conditions: 37° C., 5% CO2 • Culture medium: DMEM • Conditions: • Control (NHDF in DMEM test medium 0% FCS) (n=6) • Reference: FCS (Fetal Calf Serum) at 10% (n=2) • compounds tested (n=2) • Incubation: 72 hours • Assay: Normal human fibroblasts were seeded on 96-well plates suitable for the migration studies. In these plates, the substrates were pretreated with a solution of collagen and a mask was placed at the centre of each well, preventing adhesion of the cells in this zone and thus forming an artificial wound. After labelling the cells with calcein, the masks were removed and then the cells were treated with the compounds or the reference. The migration of the cells was monitored microscopically for 72 hours, taking photographs at 0 h, 24 h, 48 h and 72 h. The results are expressed in percentage coverage and compared with the untreated control.

[4] = target: T1, tyrosinase (DOPA oxidase) (Homo sapiens, UniProt P14679); test: Screening of anti-tyrosinase activity: DOPA oxidase reaction on separated epidermis, count of DOPA positive melanocytes per mm2; assay type: cell-based
T1 construct: from tissue; host or cells: separated human epidermis from a frozen abdominoplasty (melanocytes in situ)
T1 sequence (P14679 19-529): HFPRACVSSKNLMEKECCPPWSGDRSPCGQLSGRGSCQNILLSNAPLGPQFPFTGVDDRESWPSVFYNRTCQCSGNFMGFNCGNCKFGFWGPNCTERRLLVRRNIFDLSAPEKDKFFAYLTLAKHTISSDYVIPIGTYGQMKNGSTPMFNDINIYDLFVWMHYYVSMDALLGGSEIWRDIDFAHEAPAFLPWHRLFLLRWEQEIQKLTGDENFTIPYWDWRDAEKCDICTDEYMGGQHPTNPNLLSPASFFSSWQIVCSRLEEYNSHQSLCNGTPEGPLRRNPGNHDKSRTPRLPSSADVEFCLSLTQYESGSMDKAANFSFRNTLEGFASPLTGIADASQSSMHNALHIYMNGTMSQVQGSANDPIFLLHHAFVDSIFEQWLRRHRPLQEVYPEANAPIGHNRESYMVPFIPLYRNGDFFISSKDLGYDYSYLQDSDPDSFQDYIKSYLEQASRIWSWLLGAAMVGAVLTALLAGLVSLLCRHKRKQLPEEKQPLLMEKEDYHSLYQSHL
Experimental: The products are tested in solution at 30 μg/mL in DMSO. Epidermis samples originating from a frozen abdominoplasty (person) were separated by incubation in 2N NaBr for 1.0 h at 37° C. They were then fixed in a buffered formolized fixing agent, rinsed and put in contact with the volume/volume mixture: solutions of L-DOPA/test formulation. After incubation, they were rinsed and mounted between slide and cover slip with mounting liquid of the Aquatex type. Observation was by optical microscopy with ×10 objective. Images were obtained with a tri CCD Sony DXC […] camera and stored using the Leica IM1000 data archiving software. For each batch, several microscope fields were analysed using the LEICA QWin image analysis software. For each field, the DOPA positive melanocytes were counted and the area of the zone was measured to determine the melanocyte count per mm^2.

[5] = test system: Human dermal fibroblasts aged according to the Hayflick model (P17NHDF); test: Proliferation of aged human dermal fibroblasts, [3H]-thymidine incorporation; assay type: cell-based; conditions: 72 hours, 3 μM
Experimental: Thus, stimulation of the proliferation of the aged fibroblasts makes possible a partial reversal of the deleterious effects of ageing. • Biological model: Human dermal fibroblasts aged according to the Hayflick model (fibroblasts obtained by successive subculture) (P17NHDF) • Culture conditions: 37° C., 5% CO2 • Culture medium: DMEM/fetal calf serum (FCS) 10% • Conditions: • Control (n=6) • Control normal fibroblasts, not aged (P7 NHDF) (n=2) • Reference: EGF (Epidermal Growth Factor) at 10 ng/mL (n=2) • compounds tested (n=2) • Incubation: 72 hours • Assay: The effects on proliferation were evaluated by measuring the incorporation of [^3H]-thymidine in fibroblasts aged according to the Hayflick model. The Hayflick model consists of applying successive subcultures in order to induce an “aged” phenotype. The results are expressed in percentage stimulation of the incorporation of [^3H]-thymidine.

[6] = test system: Normal human epidermal keratinocytes (NHEK); test: Proliferation and/or migration of keratinocytes, artificial wound coverage; assay type: cell-based; conditions: percentage coverage at 48 h
Experimental: The phases of migration and proliferation of cells are major phases of healing that occur after the inflammation phase and are necessary for recolonization of the wound. An increase in the migration and proliferation of cells allows an improvement in healing. • Biological model: Normal human epidermal keratinocytes (NHEK) • Culture conditions: 37° C., 5% CO2 • Culture medium: Keratinocyte-SFM-PE-EGF (keratinocyte culture medium—serum free medium (SFM) without pituitary extract (PE) and without Epidermal Growth Factor (EGF) • Conditions: • Control (n=6) • Reference: EGF (Epidermal Growth Factor) at 10 ng/ml (n=2) • compounds tested (n=2) • Incubation: 72 hours • Assay: Normal human keratinocytes were seeded on 96-well plates suitable for the migration studies. In these plates, the substrates were pretreated with a solution of collagen and a mask was placed at the centre of each well, preventing adhesion of the cells in this zone and thus forming an artificial wound. After labelling the cells with calcein, the masks were removed and then the cells were treated with the compounds or the reference. The migration of the cells was monitored microscopically for 72 hours, taking photographs at 0 h, 24 h, 48 h and 72 h. The results are expressed in percentage coverage and compared with the untreated control.

human leukocyte elastase = target: T2, human leukocyte elastase (Homo sapiens, UniProt P08246); test: Inhibition of leukocyte elastase (EnzChek Elastase assay kit); assay type: biochemical; conditions: incubation 1 hour
T2 sequence (P08246 30-267): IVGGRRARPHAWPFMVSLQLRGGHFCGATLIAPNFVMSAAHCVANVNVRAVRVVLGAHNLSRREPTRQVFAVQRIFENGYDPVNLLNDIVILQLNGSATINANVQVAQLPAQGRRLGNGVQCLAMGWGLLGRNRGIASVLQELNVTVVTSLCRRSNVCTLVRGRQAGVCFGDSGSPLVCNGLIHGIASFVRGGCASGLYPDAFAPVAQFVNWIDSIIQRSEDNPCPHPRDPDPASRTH
Description: The elastases are a sub-family of serine proteases responsible for the degradation of elastin. The numerous natural substrates of this enzyme include, in addition to elastin, the proteoglycans of cartilage, fibronectin and the type I, II, III and IV collagens. At the cutaneous level, inhibition of elastase can combat the effects of ageing, whether or not photo-induced, and limit the appearance of wrinkles and stretch marks. • Biological model: human leukocyte elastase • Conditions: • Control (n=6) • Reference: AAPV (N-methoxysuccinyl-Ala-Ala-Pro-Val-chloromethyl ketone) 100 μM (n=6) • compounds tested (n=2) • Incubation: 1 hour • Assay: The activity of human leukocyte elastase was evaluated using the EnzChek® Elastase assay kit. The measurement of activity is based on the use of a fluorescent substrate (DQTM Elastin) whose fluorescence is “quenched” through the presence of “quencher” groups at the level of the lytic sites. After action of the enzyme, the “quencher” groups are released and the fluorescence emitted is proportional to the activity of the enzyme. The results are expressed in percentage inhibition of the enzyme activity.

With `O=C(/C=C/CCCCCOC1CCCCO1)N[C@H]1CCC[C@H]1NC(=O)/C=C/CCCCCOC1CCCCO1` (stereo partly shown) [c27] the inhibition at 30 µM (B16 melanocytes [1]; Melanocyte, 30 μM, read-out: Normalized data inhibition (%)) was 12%, the inhibition at 100 µM (B16 melanocytes [1]; Melanocyte, 100 μM, read-out: Normalized data inhibition (%)) was 110% and the “Viability (MTT) % stimulated control” value (B16 melanocytes [2]; 30 μM) was 89 % stimulated control. The “Viability (MTT) % stimulated control” value (B16 melanocytes [2]; 100 μM) was 71 % stimulated control and the “% control 24 h” value ([3]; 10 μM) was 131 % control.
With `O=C(NC1CC1NC(=O)C(F)=CCCCCCCCCCCCCCCO)C(F)=CCCCCCCCCCCCCCCO` (stereo not shown) [c42] the Variation/control ([4]; DOPA positive melanocyte count per mm2 vs DOPA control, product at 30 μg/mL in DMSO) was −55, the “effectiveness for limiting tyrosinase activity compared with reference compounds” value ([4]; vs ref 1) was “more effective than the reference compounds” and the “Stimulation (%)” value [5] was 48%. For the same molecule, the “% control 24 h” value ([3]; 3 μM) was 130 % control and the “% control 48 h” value ([6]; 3 μM) was 141 % control.
In the case of `CCCCCC=CCC=CCCCCCCCC(=O)NC1CCCC1NC(=O)CCCCCCCC=CCC=CCCCCC` (stereo not shown) [c128], the “Normalized data inhibition (%)” value (B16 melanocytes [1]; 30 μM) is reported as 9%, the “Normalized data inhibition (%)” value (B16 melanocytes [1]; 100 μM) is reported as 93% and the “Inhibition (%)” value (human leukocyte elastase; 30 μM) is reported as 75%.
With `CCCCCCCCCCCCCC(=O)NC1CCC(NC(=O)CCCCCCCCCCCCC)C1` (stereo not shown) [c132] the “% control 24 h” value ([3]; 10 μM) was 131 % control and the “% control 48 h” value ([6]; 10 μM) was 138 % control.
With “N-methoxysuccinyl-Ala-Ala-Pro-Val-chloromethyl ketone (MeOSuc-AAPV-CH2Cl) [reference compound]” the “Inhibition (%)” value (human leukocyte elastase; 100 μM) was 95%.

Reference: patent US20140249105A1, “NOVEL CERAMIDE ANALOGUES, PROCESSES FOR PREPARING SAME AND USES THEREOF” (Diverchim, priority 2011, published 2014)
